Test results from patent US7892833B2, “Using inhibitors of histone deacetylases for the suppression therapy of inherited disease predisposing conditions” (TopoTarget Germany AG, priority 2003, dated 2011).
“Also recorded” adds a separate entry of the source.

Experiments:
[1] = system: C57BL/6J-APC^min mice; test: APC^min mouse model, adenoma count after four weeks of treatment; assay type: in vivo
Method: Ten to sixteen weeks old age- and sex-matched heterozygous C57BL/6J-APC^min mice (Jackson Laboratories, Bar Harbor, Me.) were either left untreated or were treated with 2-PPA or Celecoxib. Control animal were injected (i.p.) with PBS. 2-PPA was injected as isotonic aequous solution of the sodium salt (2×400 mg/kg/day) for four weeks, while Celecoxib was fed to the animals ad libidum at 1250 ppm (0, 12%) for four weeks. At necropsy entire intestinal tracts were opened longitudinally and fixed in 10% phosphate buffered formaldehyde for 24 h. Polyp contrast was increased performing a 1 min staining in 0.1% methylene blue prior to determination of polyp numbers and sizes under a dissecting microscope by two independent observers unaware of the treatment that the mice had received.

[2] = system: TNF-α; test: TNF-α ELISA of PBL supernatants; assay type: cell-based, human; conditions: for TNF-α secretion, dose-response / concentration of maximal inhibition of TNF-α expression: PBLs, FIG. 6; for TNF-α secretion, dose-response: 2 h preincubation, CD3 and CD28 mAbs 24 h; for concentration of maximal inhibition of TNF-α expression: CD3/CD28
Method: (§1) Monocyte and macrophage depleted peripheral blood mononuclear cells were obtained from consenting adults via separation using Ficoll-Hypaque. The peripheral blood mononuclear cells (PBMC) fraction was washed and seeded in 9 cm petri dishes. After an incubation of 2 hours at 37° C. to remove most of the monocytes, macrophages, and B-cells, the non-adherent cells were collected and cultured in 175cm^2 flasks for 2 days. Cells were harvested and adjusted to 3 million cells per ml. Aliquots of 500μl were transferred to each well of 24-well flat bottom plates. Peripheral blood lymphocytes (PBL's) were treated with various concentrations of HDAC inhibitors as indicated. After a 2 hour incubation time at 37°C cells were stimulated with phorbol 12-myristate 13-acetate (PMA) / ionomycin (Ion) or activated via T cell receptor (TCR/CD3) complex with 10μg/m1 anti-CD3 mAb (OKT3) and 2.5μg/ml anti-CD28 mAb. After 24 hours at 37° C. the supernatant was removed and frozen for cytokine assays. Cell pellets were lysed and total RNA was isolated using the RNeasy mini kit from Qiagen.
(§2) To perform ELISA's, supernatants of treated and untreated PBL's were collected and IL-2 as well as TNF-α were measured using the Duo Set ELISA Development System (R&D Systems) as described by the manufacturer.

[3] = system: Acetylated histones H3 and H4 and the marker gene HDAC-2; test: Western blot of peripheral blood cells from patients treated with 2PPA (phase I/II); assay type: in vivo, human; conditions: 2PPA intravenously, before, 6 h, 24 h, 48 h
Method: Whole cell extracts were prepared by lysis of cells in RIPA buffer including protease inhibitors. Lysates were separated by SDS gel electrophoresis and transferred onto PVDF membranes. Acetylated histones H3 and H4 and the marker gene HDAC-2 were detected by western blot analysis using an anti-acetylated H3 antibody (Upstate, #06-942), an anti-acetylated H4 antibody (clon T25; patent application EP 02.021984.6), and an anti-HDAC-2 antibody (SCBT, SC-7899). As an equal loading control PVDF membranes were stained with Coomassie (FIG. 9).

[4] = EP application No. 03014278.0; cited from earlier work
[5] = system: Peripheral blood lymphocytes (PBL's); test: Cytokine mRNA by semiquantitative RT-PCR in PMA/Ion-stimulated PBLs; assay type: cell-based, human; conditions: for IL-6 mRNA / PMA/Ion mediated stimulation of IL-4 mRNA: 2 h preincubation, PMA/Ion 24 h; for modulation of cytokine expression: PMA/Ion, FIGS. 4A and B
Method: as §1
(§3) One microgram of total RNA was transcribed to cDNA by standard methods using reverse transcriptase and an oligo-dT primer (Invitrogen). For semiquantitative PCR, 2 μl of cDNA was amplified by PCR using specific primers. Primers for PCR were synthesized by MWG and are as follows: […]

[6] = system: IL-2; test: IL-2 ELISA of PBL supernatants; assay type: cell-based, human; conditions: for secretion of IL-2 / concentration of maximal inhibition of IL-2 expression: CD3/CD28; for secretion of IL-2 / IL-2 secretion, dose-response / concentration of maximal inhibition of IL-2 expression: FIG. 6; for IL-2 secretion, dose-response / concentration of maximal inhibition of IL-2 expression: PBLs; for IL-2 secretion, dose-response: 2 h preincubation, CD3 and CD28 mAbs 24 h
Method: as §1, §2

[7] = system: Peripheral blood cells; test: Cytokine ELISA and RT-PCR in peripheral blood cells from a patient treated with 2PPA; assay type: in vivo, human
Method: The cells were either left unstimulated or stimulated with CD3 and CD28 antibodies. After 24 hours at 37° C. the supernatant was collected and the secretion of IL-2 and TNF-α was quantified by ELISA (R&D Systems) (FIGS. 10A and B).
Total RNA from unstimulated and CD3/CD28 stimulated cells was isolated using the RNeasy mini kit (Qiagen). One microgram of total RNA was converted to cDNA by standard methods using reverse transcriptase and an oligo-dT primer (Invitrogen). For semiquantitative PCR, 2 μl of cDNA were amplified by PCR using the specific primers as described above (FIG. 10C).

[8] = system: Human immortalized keratinocytes (HaCaT cells); test: Cytokine mRNA by semiquantitative RT-PCR in LPS-stimulated keratinocytes; assay type: cell-based; conditions: 4 h preincubation (200 nM TSA or 5 mM 2PPA), LPS 24 h; for level of IL-6 mRNA / level of TNF-α mRNA: vs. untreated stimulated control
Method: Human immortalized keratinocytes (HaCaT cells) were seeded at a density of 2.5 million cells per ml into 75 cm^2 flasks. […] After 24 hours at 37° C. cells were lysed and total RNA was isolated using the RNeasy mini kit from Qiagen.
as §3

[9] = system: cell lines with proven mutations of crucial genes; test: Cell viability assay (MTT test); assay type: cell-based; conditions: 0.5 to 3 mM, 40 h to 70 h, all the cell lines tested, vs. untreated cells
Method: In FIG. 1 cell lines are listed with proven mutations of crucial genes which in an inherited way establish a condition that predisposes a person to develop a disorder. The cells were grown in the respective medium as described in FIG. 1.
The cell lines listed in table 1 were seeded in 96 well plates at a density of 1×10^4 cells/well in normal growth medium. 2-propyl pentanoic acid was added at final concentrations between 0.5 and 3 mM to triplicate samples and the cells were incubated for 40 h to 70 h. Control cells were grown in the absence of 2-propyl pentanoic acid. Ten μl of 10 mg/ml 3-(4,5-dimethylthiazole-2-yl)-2,5 diphenyltetrazolium bromide (MTT) (Sigma, Deisenhofen, Germany) in PBS were added to each well and the cells were incubated for another 3 h. Cells were lysed by the addition of 90 μl of lysis buffer (20% SDS in 50% dimethyl formamide, pH 4.7). After solubilization of the formazan product, the absorption at 590 nm was determined in a microplate reader (Dynatech, Denkendorf, Germany) and the relative amount of viable cells in comparison to cells grown without the addition of 2-propyl pentanoic acid was determined.

[10] = system: stage III/IV non-small cell lung cancer; conditions: monotherapy; Keer et al., 2002; cited from earlier work
[11] = system: PPARδ; conditions: cited from earlier work
[12] = system: acute promyelocytic leukemia; conditions: PML-RAR patient with multiple relapses after retinoic acid; Warrell et al., 1998; cited from earlier work
[13] = 1 mM, other experiments, PMA/ION and CD3/CD28, FIG. 7
[14] = starting at 24 hours of 2PPA treatment

CCCC(CCC)C(=O)O [2PPA, 2-propyl-pentanoic acid]
number of colorectal adenomas ([1]; APC^min mice treated for 4 weeks, FIG. 2 legend): reduction in the number of colorectal adenomas
number of adenomas in the small intestine ([1]; four weeks, 2-PPA sodium salt i.p. 2×400 mg/kg/day, Celecoxib 1250 ppm in feed, FIG. 2A, 400 mg/kg/day): reduces adenoma formation; also recorded: clearly reduces the number of adenomas
abnormalities in the gastrointestinal tract ([1]; mouse, in vivo): did not show any abnormalities in the gastrointestinal tract
TNF-α secretion [2, 13]: significant decrease
TNF-α secretion, dose-response [2]: dose-dependent inhibition
Histone H3 and H4 acetylation in peripheral blood cells [3]: Histone H3 and H4 hyperacetylation
marker protein HDAC-2 in peripheral blood cells [3]: down-regulation of the marker protein HDAC-2
skin permeation [4]: permeates human skin effectively
IL-6 mRNA [5]: decreased IL-6 mRNA back to the level seen in the unstimulated sample
PMA/Ion mediated stimulation of IL-4 mRNA [5]: significantly reduced
secretion of IL-2 ([6]; 0.5 mM): only moderate effect
secretion of IL-2 ([6]; 1 mM): only moderate effect
IL-2 secretion [6, 13]: significant decrease
secretion of IL-2 ([6]; 5 mM): significantly reduced
IL-2 secretion, dose-response [6]: dose-dependent inhibition
IL-2 mRNA transcripts ([7]; CD3/CD28 stimulated): decrease
TNF-α mRNA transcripts ([7]; CD3/CD28 stimulated): decrease
IL-2 in the culture supernatant (ELISA) ([7]; CD3/CD28 stimulated 24 h): modulates the expression
TNF-α in the culture supernatant (ELISA) ([7]; CD3/CD28 stimulated 24 h): modulates the expression
cytokine mRNA expression of IFN-γ [7, 14]: significantly reduced
cytokine mRNA expression of IL-4 [7, 14]: significantly reduced
mRNA transcript of IFN-γ [8]: significantly reduced
level of IL-6 mRNA [8]: significant decrease
level of TNF-α mRNA [8]: significant decrease
inhibition of cell viability [9]: 20-80%

Cc1ccc(-c2cc(C(F)(F)F)nn2-c2ccc(S(N)(=O)=O)cc2)cc1 [Celecoxib]
abnormalities in the gastrointestinal tract ([1]; APC^min mice after four weeks of treatment, FIG. 2B): intensely inflated stomach, small intestine, and colon

O=C(CCC1CCCC1)NO [G2M-701]
TNF-α secretion, dose-response [2]: dose-dependent inhibition
concentration of maximal inhibition of TNF-α expression [2]: 6 µM
modulation of cytokine expression [5]: can modulate cytokine expression
IL-2 secretion, dose-response [6]: dose-dependent inhibition
concentration of maximal inhibition of IL-2 expression [6]: 6 µM

O=C(CCC1CCCCC1)NO [G2M-702]
TNF-α secretion, dose-response [2]: dose-dependent inhibition
concentration of maximal inhibition of TNF-α expression [2]: 3 µM
modulation of cytokine expression [5]: can modulate cytokine expression
IL-2 secretion, dose-response [6]: dose-dependent inhibition
concentration of maximal inhibition of IL-2 expression [6]: 3 µM

O=C(/C=C/C1CCCCC1)NO [G2M-707]
TNF-α secretion, dose-response [2]: dose-dependent inhibition
concentration of maximal inhibition of TNF-α expression [2]: 1 µM
modulation of cytokine expression [5]: can modulate cytokine expression
IL-2 secretion, dose-response [6]: dose-dependent inhibition
concentration of maximal inhibition of IL-2 expression [6]: 1 µM

CCCC(=O)OCOC(=O)C(C)(C)C [Pivanex, Pivaloyloxymethyl butyrate]
clinical activity [10]: activity in stage III/IV non-small cell lung cancer

O=C(CCCCCCC(=O)Nc1ccccc1)NO [SAHA, suberoylanilide hydroxamic acid]
modulation of cytokine expression [5]: can modulate cytokine expression

CC(/C=C/C(=O)NO)=C\[C@@H](C)C(=O)c1ccc(N(C)C)cc1 [TSA, Trichostatin A]
IL-6 mRNA [5]: only moderate effects
PMA/Ion mediated stimulation of IL-4 mRNA [5]: significantly reduced
activation of PPARδ [11]: activates PPARδ
mRNA transcript of IFN-γ [8]: virtually unaffected
level of IL-6 mRNA [8]: significant decrease
level of TNF-α mRNA [8]: significant decrease

phenylbutyrate
clinical outcome [12]: complete remission of the leukemia
